# Read-outs that look alike come from different tables or passages of the source.
# Key:
# [1] = target: T1, JAK2 JH2 WT (V536-D812) [W659A, W777A, F794H solubilizing mutations] (Homo sapiens, UniProt O60674, F794H/W659A/W777A); experiment: Surface Plasmon Resonance (SPR) binding assay, JAK2 JH2 domain
# T1 construct: **JAK2 JH2 WT (V536-D812) [W659A, W777A, F794H solubilizing mutations]; C-thrombin-avi-His6; thrombin cleavage site (C); His6 (C); purchased Biortus
# Outline: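 Kinetics came from 1:1 fits of single-cycle runs at 20 °C: four 3-fold dilutions from 5 uM for JH1 or 500 nM for JH2, 60 s association, and 300 s or 1200 s dissociation respectively. Protein was freshly captured per compound in the presence of 10 uM stabilizer compound, with running buffer of pH 7.5 HEPES/NaCl/glycerol/DTT plus 2% DMSO.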
# [2] = tested on: TF1 JAK2 V617F STAT3 reporter; experiment: Cellular TF1 STAT3 assay (luciferase reporter), JAK2 V617F; type: cell-based; details: read-out: Cell PD-TF1 JAK2 V617F STAT3 (IC50)
# Outline: (§1)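 Inhibition of JAK2 V617F-mediated STAT3/STAT5 signalling is measured by reporter luminescence in TF1 erythroleukemia cells treated overnight (18-20 h) with a 10-point compound series; DMSO serves as vehicle.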
# [3] = tested on: TF1 JAK2 V617F STAT5 reporter; experiment: Cellular TF1 STAT5 assay (luciferase reporter), JAK2 V617F; type: cell-based; details: read-out: Cell PD TF1 V617F STAT5 (IC50)
# Outline: as §1
# [4] = Homo sapiens, TF-1, TF1 cells, JAK2 V617F
# T1 sequence (O60674 536-812 W659A/W777A/F794H): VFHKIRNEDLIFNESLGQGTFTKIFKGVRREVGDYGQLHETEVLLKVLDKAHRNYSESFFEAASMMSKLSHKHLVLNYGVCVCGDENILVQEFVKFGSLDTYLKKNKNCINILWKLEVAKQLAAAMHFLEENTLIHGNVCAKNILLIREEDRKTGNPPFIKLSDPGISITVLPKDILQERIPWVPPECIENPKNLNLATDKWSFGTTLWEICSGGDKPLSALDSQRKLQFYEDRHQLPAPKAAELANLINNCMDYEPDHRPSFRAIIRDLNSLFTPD
"Kd ([1]; SPR, JAK2 JH2 domain) [nM]",IC50 ([2]; TF1 JAK2 V617F) [nM],IC50 ([3]; TF1 JAK2 V617F) [nM],"IC50 [2, 4] [nM]","IC50 [3, 4] [nM]",Kd [1] [nM],SMILES
10 to 50,5000 to 100000,5000 to 100000,–,–,–,CNC(=O)c1nnc(NC(=O)C2CC2)cc1Nc1cccc(-c2ccc(C(=O)N(C)CC(F)F)nc2)c1OC [Compound 114]
0.01 to 10,500 to 5000,500 to 5000,–,–,–,CNC(=O)c1nnc(NC(=O)C2CC2)cc1Nc1cccc(-c2ccc(C(=O)N(C)Cc3cnc4ccc(Cl)cn34)nc2)c1OC [Compound 31]
0.01 to 10,5000 to 100000,5000 to 100000,–,–,–,CNC(=O)c1nnc(NC(=O)C2CC2)cc1Nc1cccc(-c2ccc(C(=O)N(C)Cc3ncc(C#N)s3)nc2)c1OC [Compound 178]
–,–,–,5000 to 100000,5000 to 100000,10 to 50,"CNC(=O)c1nnc(NC(=O)C2CC2)cc1Nc1cccc(-c2ccc(C(=O)N(C)C[C@H]3CCCC3(F)F)nc2)c1OC (single isomer, unassigned) [Compound 226]"
–,–,–,500 to 5000,500 to 5000,0.01 to 10,CNC(=O)c1nnc(NC(=O)C2CC2)cc1Nc1cccc(-c2ccc(C(=O)N(C)Cc3ncc(CN(C)C)s3)nc2)c1OC [Compound 271]
–,–,–,500 to 5000,500 to 5000,0.01 to 10,CNC(=O)c1nnc(NC(=O)C2CC2)cc1Nc1cccc(-c2ccc(C(=O)N(C)Cc3cc(C#N)cnn3)nc2)c1OC [Compound 332]
0.01 to 10,500 to 5000,500 to 5000,–,–,–,CNC(=O)c1nnc(NC(=O)C2CC2)cc1Nc1cccc(-c2cnc(C(=O)N(CCF)Cc3cccn(C)c3=O)c(F)c2)c1OC [Compound 22]
–,–,–,50 to 500,50 to 500,0.01 to 10,CNC(=O)c1nnc(NC(=O)C2CC2)cc1Nc1cccc(-c2ccc(C(=O)N(C)Cc3cn(C)nc3OC)nc2)c1OC [Compound 257]
–,–,–,50 to 500,50 to 500,0.01 to 10,CNC(=O)c1nnc(NC(=O)C2CC2)cc1Nc1cccc(-c2ccc(C(=O)N(C)Cc3cn(C)nc3C)cc2)c1OC [Compound 221]
–,–,–,50 to 500,50 to 500,0.01 to 10,CNC(=O)c1nnc(NC(=O)C2CC2)cc1Nc1ccc(Cl)c(-c2ccc(C(=O)N(C)Cc3cc(C#N)n(C)n3)nc2)c1OC [Compound 205]
0.01 to 10,500 to 5000,500 to 5000,–,–,–,CNC(=O)c1nnc(NC(=O)C2CC2)cc1Nc1ccc(C)c(-c2cnc(C(=O)N(C)Cc3ccn(C)n3)c(F)c2)c1OC [Compound 47]
0.01 to 10,500 to 5000,500 to 5000,–,–,–,CCn1cncc1CN(C)C(=O)c1ccc(-c2cccc(Nc3cc(NC(=O)C4CC4)nnc3C(=O)NC)c2OC)cn1 [Compound 96]
–,–,–,5000 to 100000,500 to 5000,50 to 500,CNC(=O)c1nnc(NC(=O)C2CC2)cc1Nc1cccc(-c2ccc(C3CN(Cc4cccc(C#N)n4)C3)c(OC)c2)c1OC [Compound 361]
–,–,–,50 to 500,50 to 500,0.01 to 10,CNC(=O)c1nnc(NC(=O)C2CC2)cc1Nc1ccc(C)c(-c2ccc(C(=O)N(C)Cc3cc(C(F)F)ccn3)nc2)c1OC [Compound 296]
0.01 to 10,500 to 5000,500 to 5000,–,–,–,CNC(=O)c1nnc(NC(=O)C2CC2)cc1Nc1cccc(-c2ccc(C(=O)N(C)Cc3cn(C)nc3C(F)(F)F)nn2)c1OC [Compound 75]
–,–,–,50 to 500,50 to 500,0.01 to 10,CNC(=O)c1nnc(NC(=O)C2CC2)cc1Nc1cccc(-c2ccc(C(=O)N(C)Cc3cn(C)nc3C3CC3)nc2)c1OC [Compound 252]
0.01 to 10,500 to 5000,500 to 5000,–,–,–,CNC(=O)c1nnc(NC(=O)C2CC2)cc1Nc1cccc(-c2ccc(C(=O)N(C)Cc3cc(C#N)ccn3)c(C(F)(F)F)c2)c1OC [Compound 170]
–,–,–,5000 to 100000,5000 to 100000,0.01 to 10,"CNC(=O)c1nnc(NC(=O)C2CC2)cc1Nc1cccc(-c2ccc(C(=O)N(C)C[C@H]3CCS(=O)(=O)C3)nc2)c1OC (single isomer, unassigned) [Compound 207]"

# The remaining lines, values behind:
SMILES,"Kd ([1]; SPR, JAK2 JH2 domain) [nM]",IC50 ([2]; TF1 JAK2 V617F) [nM],IC50 ([3]; TF1 JAK2 V617F) [nM],"IC50 [2, 4] [nM]","IC50 [3, 4] [nM]",Kd [1] [nM]
"CNC(=O)c1nnc(NC(=O)C2CC2)cc1Nc1cccc(-c2cnn([C@H]3C[C@@H]([C@@H](O)c4ccccn4)C3)c2)c1OC (single isomer, unassigned) [Compound 398]",0.01 to 10,–,–,500 to 5000,500 to 5000,–
CNC(=O)c1nnc(NC(=O)C2CC2)cc1Nc1nccc(-c2cnn(C3CN(Cc4ccccn4)C3)c2)c1OC [Compound 218],–,–,–,50 to 500,500 to 5000,0.01 to 10
CNC(=O)c1nnc(NC(=O)C2CC2)cc1Nc1cccc(-c2cnn(C3CN(Cc4cccc(C(C)O)n4)C3)c2)c1OC (stereo not drawn) [Compound 306],–,–,–,50 to 500,50 to 500,0.01 to 10
CNC(=O)c1nnc(NC(=O)C2CC2)cc1Nc1cccc(-c2cn(C3CN(Cc4cccc(C#N)n4)C3)nn2)c1OC [Compound 183],0.01 to 10,500 to 5000,50 to 500,–,–,–
CNC(=O)c1nnc(NC(=O)C2CC2)cc1Nc1cccc(-c2cn(C3CN(C(C)C)C3)nc2C(C)(C)O)c1OC [Compound 338],–,–,–,500 to 5000,5000 to 100000,50 to 500
CNC(=O)c1nnc(NC(=O)C2CC2)cc1Nc1cccc(-c2cnn(C3CN(Cc4cccc(C(C)(C)CO)n4)C3)c2)c1OC [Compound 300],–,–,–,50 to 500,50 to 500,0.01 to 10
CNC(=O)c1nnc(NC(=O)C2CC2)cc1Nc1cccc(-c2cnn(C3CN(Cc4cc(C(F)F)cc(C#N)n4)C3)c2)c1OC [Compound 344],–,–,–,50 to 500,50 to 500,0.01 to 10
"CNC(=O)c1nnc(NC(=O)C2CC2)cc1Nc1cccc(-c2cnn([C@H]3C[C@@H]([C@H](OC)c4ccccn4)C3)c2)c1OC (single isomer, unassigned) [Compound 350]",–,–,–,500 to 5000,500 to 5000,10 to 50
CNC(=O)c1nnc(NC(=O)C2CC2)cc1Nc1cccc(-c2cnn(C3CN(C(C#N)c4ccccn4)C3)c2)c1OC (racemic) [Compound 315],–,–,–,500 to 5000,5000 to 100000,0.01 to 10
CCN(C)C(=O)c1cccc(CN2CC(n3cc(-c4cccc(Nc5cc(NC(=O)C6CC6)nnc5C(=O)NC)c4OC)cn3)C2)n1 [Compound 354],–,–,–,50 to 500,10 to 50,0.01 to 10
CNC(=O)c1nnc(NC(=O)C2CC2)cc1Nc1cccc(-c2cnn(C3CN(Cc4cccc(F)c4)C3)c2)c1OC [Compound 91],0.01 to 10,500 to 5000,500 to 5000,–,–,–
CNC(=O)c1nnc(NC(=O)C2CC2)cc1Nc1cccc(-c2cnn(C3CN(Cc4nccc(OC)n4)C3)c2)c1OC [Compound 78],0.01 to 10,500 to 5000,500 to 5000,–,–,–
CNC(=O)c1nnc(NC(=O)C2CC2)cc1Nc1cccc(-c2cnn(C3CC(Oc4cccc(C#N)n4)C3)c2)c1OC (stereo not drawn) [Compound 372],–,–,–,500 to 5000,500 to 5000,0.01 to 10
CNC(=O)c1nnc(NC(=O)C2CC2)cc1Nc1cccc(-c2cnn(C3CN(Cc4cccc(C(=O)N5CCC(C(F)(F)F)C5)n4)C3)c2)c1OC (stereo not drawn) [Compound 358],–,–,–,50 to 500,50 to 500,0.01 to 10
CNC(=O)c1nnc(NC(=O)C2CC2)cc1Nc1ccc(C)c(-c2ccc(C(=O)N(C)Cc3cn(C)nc3C)nc2)c1OC [Compound 164],0.01 to 10,50 to 500,50 to 500,–,–,–
C=C(C)c1cccc(CN2CC(n3cc(-c4cccc(Nc5cc(NC(=O)C6CC6)nnc5C(=O)NC)c4OC)cn3)C2)n1 [Compound 367],–,–,–,50 to 500,50 to 500,0.01 to 10
CNC(=O)c1nnc(NC(=O)C2CC2)cc1Nc1cccc(-c2cn([C@H]3CN(Cc4cccc(C)n4)[C@@H]3C)nn2)c1OC (stereo in doubt) [Compound 235],–,–,–,50 to 500,50 to 500,0.01 to 10
CNC(=O)c1nnc(NC(=O)OC2CC2)cc1Nc1cccc(-c2cnn(C3CN(Cc4ccccn4)C3)c2)c1OC [Compound 342],–,–,–,500 to 5000,500 to 5000,0.01 to 10
CNC(=O)c1nnc(NC(=O)C2CC2)cc1Nc1cccc(-c2cn(C3CN(Cc4cccc(C#N)n4)C3)nc2C(C)O)c1OC (stereo not drawn) [Compound 337],–,–,–,5000 to 100000,5000 to 100000,0.01 to 10
CNC(=O)c1nnc(NC(=O)C2CC2)cc1Nc1cccc(-c2cnn(C3CN(CC4(C#N)CC4)C3)c2)c1OC [Compound 121],0.01 to 10,500 to 5000,5000 to 100000,–,–,–
"CNC(=O)c1nnc(NC(=O)C2CC2)cc1Nc1cccc(-c2cnn(C3CN([C@@H](C)c4ccccn4)C3)c2)c1OC (single isomer, unassigned) [Compound 162]",0.01 to 10,50 to 500,500 to 5000,–,–,–
CNC(=O)c1nnc(NC(=O)C2CC2)cc1Nc1cccc(-c2cnn(C3CN(Cc4cc([N+](=O)[O-])ccn4)C3)c2)c1OC [Compound 295],–,–,–,50 to 500,50 to 500,0.01 to 10
CNC(=O)c1nnc(NC(=O)C2CC2)cc1Nc1cccc(-c2cnn(C3CN(Cc4cnccn4)C3)c2)c1OC [Compound 110],0.01 to 10,50 to 500,500 to 5000,–,–,–

# From patent US20240368122A1, “JAK2 INHIBITORS AND METHODS OF USE THEREOF” (RELAY THERAPEUTICS, INC., priority 2021, published 2024)
